Results: patent US9018370B2, “Derivatives of uridine phosphate and their uses in protein binding assays” (King's College London of Strand, priority 2009, dated 2015)

Experiments:
[1] = Quantum yield determination of nucleotide derivatives; format: physicochemical; details: for Q.Y.: in water
Protocol: Nucleotide derivatives were serially diluted in H2O (10, 20, 30, 40 and 50 μM for absorbance measurements, and 0.2, 0.4, 0.6, 0.8, 1 μM for fluorescence measurements), and UV absorbance and fluorescence emission (with λmax absorbance=λem fluorescence) were recorded for all samples. To determine quantum yields, for each absorbance and fluorescence spectrum the area under the curve (AUC) was calculated by numerical integration, applying the mid-point rule. For each compound, AUCabs and AUCem were then plotted over compound concentration according to AUCabs=A×[conc]+B and AUCem=A′×[conc]+B′. From these linear plots, the gradients A and A′ were extracted, and for each compound the specific quantum yield φs, under these experimental conditions, was calculated as the ratio A′/A. Quantum yields determined with this protocol for two reference compounds, 2-aminopyridine and L-tryptophan (2-aminopyridine: 0.60; L-tryptophan: 0.14) were in exact agreement with literature values. The quantum yields for reference compounds were used to calculate the general quantum yield φg for each nucleotide analogue, according to φg=φref×(A′/A)/(A′/A)ref.
Fluorescent uracil nucleosides and (sugar-)nucleotides can be obtained by connecting a known chromophore/fluorophore via an electronically nonconjugating linker to the natural uracil base (Sinkeldam et al. Chem. Rev. 2010, 110, 2579-2619). The photophysical features of the resulting nucleoside/(sugar-)nucleotide analogue are usually very similar to that of the parent fluorophore (Sinkeldam et al. Chem. Rev. 2010, 110, 2579-2619). In contrast, extending the uracil by electronically conjugating the base to additional aromatic moieties typically generates a new chromophore with unique, and somewhat unpredictable, photophysical characteristics (Sinkeldam et al. Chem. Rev. 2010, 110, 2579-2619). To precisely measure the intensity of the fluorescence emitted by the brightest fluorophores described above, we determined their quantum yield. These measurements were performed in water following the procedure reported by Nighswander-Remper and the results are shown in Table B below. Quantum yield determinations confirmed that 2p and 2q display the highest fluorescence and are 10-fold brighter than any other nucleotide analogues with a compact aryl- or heteroaryl substituent in position 5 that have been reported to date (Sinkeldam et al. Chem. Rev. 2010, 110, 2579-2619). That 2p and 2q absorb and fluoresce at long wavelength is an attractive feature, which makes these fluorophores suitable for analyses in biological environments. Additionally, we found the intensity of the fluorescence emission is conserved for UDP and UTP analogues, thereby providing attractive fluorescence probes candidates for fluorimetric assays.

[2] = Absorbance and fluorescence spectra of 5-R-UMP analogues; format: physicochemical; details: for λmax: absorbance; for Emmax: fluorescence emission
Protocol: UV absorbance spectra were recorded on a PerkinElmer Lambda 25 UV-Vis spectrometer at ambient temperature in FarUV quartz cells (path length 1.0 cm). Fluorescence spectra were recorded on a PerkinElmer LS-45 spectrometer at ambient temperature in a quartz micro fluorescence cell (path length 1.0 cm).

B. taurus α-1,3-GalT = molecular target: T1, B. taurus α-1,3-GalT (Bos taurus, UniProt P14769); assay: Donor kinetics of UDP-Gal derivatives with GalT, HPLC; format: biochemical; details: MnCl2 20 mM, MOPS pH 7.2, 37° C.
T1 construct: made in house
T1 sequence (P14769 whole entry): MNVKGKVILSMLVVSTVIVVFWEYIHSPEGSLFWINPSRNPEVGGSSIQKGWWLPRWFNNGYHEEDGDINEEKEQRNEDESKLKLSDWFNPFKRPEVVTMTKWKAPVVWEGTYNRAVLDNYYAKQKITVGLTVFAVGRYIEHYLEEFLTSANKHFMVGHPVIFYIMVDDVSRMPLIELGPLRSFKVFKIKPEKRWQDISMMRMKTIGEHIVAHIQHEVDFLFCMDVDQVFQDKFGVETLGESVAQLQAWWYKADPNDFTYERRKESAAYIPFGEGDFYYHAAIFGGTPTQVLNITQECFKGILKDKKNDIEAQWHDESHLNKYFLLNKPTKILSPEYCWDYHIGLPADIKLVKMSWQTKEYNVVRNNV
Protocol: J. Am. Chem. Soc. 122, 261-1269 (2000); Rich, J. R.; Szpacenko, A.; Palcic, M. M. & Bundle, D. R. Glycosyltransferase-Catalyzed Synthesis of Thiooligosaccharides. Angew. Chem. Int. Ed. […] ChemBioChem 9, 1632-1640 (2008). […] (total volume 100 μL, all concentrations are final concentrations). The reactions were stopped by cooling in dry ice. Samples were analysed immediately by HPLC on a PerkinElmer Series 200 machine equipped with a Supelcosil LC-18-T column (5 μm, 25 cm×4.6 mm), a column oven (set to 30° C.), and a diode array detector. Each sample (injection volume 40 μL) was eluted at 1.5 mL/min with a gradient of methanol (10-30%) against 0.5 M phosphate buffer (adjusted to pH 8 with triethylamine). […] Km and vmax values were determined by fitting data points to a Michaelis-Menten curve using GraFit 5.0.10.

[3] = Quantum yield determination of UDP-Gal derivatives 3a-d; format: physicochemical; details: in H2O
Protocol: To determine quantum yields, for each absorbance and fluorescence spectrum the area under the curve (AUC) was calculated by numerical integration, applying the mid-point rule. For each compound, AUCabs and AUCfluo were then plotted over compound concentration according to AUCabs=A×[conc]+B (equation 1) and AUCfluo=A′×[conc]+B′ (equation 2). […] The quantum yields for reference compounds were used to calculate the general quantum yield φg for each compound 3a-d, according to φg=φref×(A′/A)/(A′/A)ref.

Ggta1 = molecular target: T2, Ggta1 (Bos taurus, UniProt P14769); assay: Variation in fluorescence of 3d and analogues upon incubation with Ggta1; format: binding, B. taurus; details: various concentrations of Ggta1
T2 construct: made in house
T2 sequence (P14769 whole entry): as above
Protocol: Fluorescence intensity measurements with 3d were carried out in black NUNC F96 MicroWell polystyrene plates on a BMG labtech PolarStar microplate reader equipped with a 350±5 nm excitation filter and a 430±5 nm emission filter. The number of flashes per wells was set to 50 (gain: 2240; position delay: 0.2 s). Prior to readings, plates were incubated, with shaking, for 10 min at 30° C. (double orbital, shaking width 4 mm, 10 seconds). Results were visualised with BMG labtech data analysis software Mars 1.10 and analysed with GraFit version 5.0.10.
Samples were pipetted into the requisite wells of a black NUNC 96-well plate as shown in tables E1-E3, at the end of the description. Key: B—Tris/HCl buffer (50 mM, pH 7; 40 μL); F—fluorophore 3d (200 nM in Tris/HCl buffer; 40 μL); M—MnCl2 (10 mM in Tris/HCl buffer; […]); E—galactosyltransferase (in Tris/HCl buffer; 40 μL); I—inhibitor (in Tris/HCl buffer; 40 μL). Total volume/well: 200 μL. All experiments were carried out in triplicate, unless indicated otherwise.
We also carried out an experiment on 3d (numbered 18e in FIG. 4) and different analogues of 3d, namely the nucleoside 5h, the nucleotide 6r and nucleoside diphosphate 22d, to show their variation in fluorescence on binding to Ggta1.
The synthesis of 5h, 6r and 22d are shown below. The protocol for the microplate/fluorescence experiments was the same as in Example 2.

SMILES | Fluo Intensity at 100 μM [2] | λmax [2] | Emmax [2] | further results
O=c1[nH]c(=O)n([C@@H]2O[C@H](COP(=O)(O)O)[C@@H](O)[C@H]2O)cc1-c1ccco1 [2m, 5-(Furan-2-yl)-uridine-5′-monophosphate] | 497 a.u. | 314 nm | 437 nm | Q.Y. [1]: 0.04
O=Cc1ccsc1-c1cn([C@@H]2O[C@H](COP(=O)(O)O)[C@@H](O)[C@H]2O)c(=O)[nH]c1=O [2o, 5-(3-Formylthien-2-yl)-uridine-5′-monophosphate] | 387 a.u. | 267 nm | 453 nm | Q.Y. [1]: 0.02
COc1cncc(-c2cn([C@@H]3O[C@H](COP(=O)(O)O)[C@@H](O)[C@H]3O)c(=O)[nH]c2=O)c1 [2j, 5-(5-Methoxy-3-pyridyl)-uridine-5′-monophosphate] | 74.8 a.u. | 289 nm | 414 nm | 
O=c1[nH]c(=O)n([C@@H]2O[C@H](COP(=O)(O)O)[C@@H](O)[C@H]2O)cc1-c1ccc(C(F)(F)F)cc1 [2i, 5-(4-Trifluoromethylphenyl)-uridine-5′-monophosphate] | 5.3 a.u. | 280 nm | 383 nm | 
COc1ccc(-c2cn([C@@H]3O[C@H](COP(=O)(O)OP(=O)(O)O[C@H]4O[C@H](CO)[C@H](O)[C@H](O)[C@H]4O)[C@@H](O)[C@H]3O)c(=O)[nH]c2=O)cc1 [3b, 5-(4-Methoxyphenyl)-UDP-α-D-galactose] |  |  |  | Km (B. taurus α-1,3-GalT): 82 ± 11 µM; kcat (B. taurus α-1,3-GalT): 0.004 s⁻¹; Quantum yield [3]: 0.024
O=c1[nH]c(=O)n([C@@H]2O[C@H](COP(=O)(O)O)[C@@H](O)[C@H]2O)cc1-c1ccccc1O [2f, 5-(2-Hydroxyphenyl)-uridine-5′-monophosphate] | 0.9 a.u. | 273 nm | 415 nm | 
O=c1[nH]c(=O)n([C@@H]2O[C@H](COP(=O)(O)O)[C@@H](O)[C@H]2O)cc1-c1cccc(O)c1 [2e, 5-(3-Hydroxyphenyl)-uridine-5′-monophosphate] |  | 285 nm |  | 
O=Cc1ccc(-c2cn([C@@H]3O[C@H](COP(=O)(O)O)[C@@H](O)[C@H]3O)c(=O)[nH]c2=O)o1 [2n] | 640 a.u. | 348 nm | 431 nm | Q.Y. [1]: 0.04
COc1ccc(-c2cn([C@@H]3O[C@H](COP(=O)(O)O)[C@@H](O)[C@H]3O)c(=O)[nH]c2=O)cc1 [2l, 5-(4-Methoxyphenyl)-uridine-5′-monophosphate] | 603 a.u. | 279 nm | 444 nm | Q.Y. [1]: 0.02
O=c1[nH]c(=O)n([C@@H]2O[C@H](COP(=O)(O)OP(=O)(O)O[C@H]3O[C@H](CO)[C@H](O)[C@H](O)[C@H]3O)[C@@H](O)[C@H]2O)cc1-c1ccco1 [3c, 5-(2-Furyl)-UDP-α-D-galactose] |  |  |  | Km (B. taurus α-1,3-GalT): 69 ± 13 µM; kcat (B. taurus α-1,3-GalT): 0.0044 s⁻¹; Quantum yield [3]: 0.04
O=c1[nH]c(=O)n([C@@H]2O[C@H](COP(=O)(O)O)[C@@H](O)[C@H]2O)cc1-c1ccccc1 [2a, 5-Phenyluridine-5′-monophosphate] | 40 a.u. | 278 nm | 403 nm | 
Cc1ccc(-c2cn([C@@H]3O[C@H](COP(=O)(O)O)[C@@H](O)[C@H]3O)c(=O)[nH]c2=O)cc1[N+](=O)[O-] [2c] | 6.7 a.u. | 279 nm | 434 nm | 
CS(=O)(=O)c1cccc(-c2cn([C@@H]3O[C@H](COP(=O)(O)O)[C@@H](O)[C@H]3O)c(=O)[nH]c2=O)c1 [2k, 5-(3-Methanesulfonylphenyl)-uridine-5′-monophosphate] | 5.3 a.u. | 278 nm | 382 nm | 
CC(C)(C)OC(=O)NCc1cccc(-c2cn([C@@H]3O[C@H](COP(=O)(O)O)[C@@H](O)[C@H]3O)c(=O)[nH]c2=O)c1 [2d, 5-(3-N-BOC-aminomethylphenyl)-uridine-5′-monophosphate] | 11.6 a.u. | 281 nm | 427 nm | 
O=c1[nH]c(=O)n([C@@H]2O[C@H](COP(=O)(O)O)[C@@H](O)[C@H]2O)cc1-c1ccc2ccccc2c1 [2g, 5-(2-Naphtyl)-uridine-5′-monophosphate] | 32.2 a.u. | 221 nm | 450 nm | 
O=c1[nH]c(=O)n([C@@H]2O[C@H](COP(=O)(O)O)[C@@H](O)[C@H]2O)cc1I [compound 1, 5-Iodouridine-5′-monophosphate] |  | 262 nm | 377 nm | 
O=C(O)c1ccc(-c2cn([C@@H]3O[C@H](COP(=O)(O)O)[C@@H](O)[C@H]3O)c(=O)[nH]c2=O)cc1 [2h, 5-(4-Carboxyphenyl)-uridine-5′-monophosphate] | 17.6 a.u. | 283 nm | 411 nm | 
CC(=O)c1ccc(-c2cn([C@@H]3O[C@H](COP(=O)(O)O)[C@@H](O)[C@H]3O)c(=O)[nH]c2=O)s1 [2p, 5-(5-Acetylthien-2-yl)-uridine-5′-monophosphate] | >650 a.u. | 348 nm | 433 nm | Brightness relative to any other reported 5-aryl/heteroaryl nucleotide analogues [1]: 10 fold; Q.Y. [1]: 0.24
O=c1[nH]c(=O)n([C@@H]2O[C@H](COP(=O)(O)O)[C@@H](O)[C@H]2O)cc1-c1ccc(Cl)cc1 [2b, 5-(4-Chlorophenyl)-uridine-5′-monophosphate] | 78 a.u. | 281 nm | 398 nm | Q.Y. [1]: 0.001
O=c1[nH]c(=O)n([C@@H]2O[C@H](COP(=O)(O)OP(=O)(O)O[C@H]3O[C@H](CO)[C@H](O)[C@H](O)[C@H]3O)[C@@H](O)[C@H]2O)cc1-c1ccccc1 [3a, 5-Phenyl UDP-α-D-galactose] |  |  |  | Km (B. taurus α-1,3-GalT): 96 ± 8 µM; kcat (B. taurus α-1,3-GalT): 0.0021 s⁻¹; Quantum yield [3]: <0.01
O=Cc1ccc(-c2cn([C@@H]3O[C@H](COP(=O)(O)OP(=O)(O)O)[C@@H](O)[C@H]3O)c(=O)[nH]c2=O)s1 [22d, 5-(5-Formylthien-2-yl)-UDP] |  |  |  | Variation in fluorescence on binding to Ggta1 (Ggta1): varied their intensity of luminescence with Ggta1
